Results published in patent US20230151025A1, “SUBSTITUTED THIAZOLOPYRIDINES, SALTS THEREOF AND THEIR USE AS HERBICIDALLY ACTIVE SUBSTANCES” (Bayer Aktiengesellschaft, priority 2020, published 2023).

Assays:
Assay type in all cases: in vivo
[1] = tested on: Alopecurus myosuroides (ALOMY); test: Herbicidal pre-emergence action (A), 1280 g/ha; details: visual grading after ca. 3 weeks vs untreated controls, 100% = plants have died off, 0% = as control plants
Method in brief: (§1)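 Pre-emergence soil-surface spray, 600 l/ha water, 0.5% additive, WP or EC formulation. Sandy loam, double sowing per pot, greenhouse under optimum growth. Visual % damage at ~3 wk vs untreated; 100% = plants died off.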

[2] = tested on: Amaranthus retroflexus (AMARE); test: Herbicidal pre-emergence action (A), 1280 g/ha; details: visual grading after ca. 3 weeks vs untreated controls
Method in brief: as §1

[3] = tested on: Digitaria sanguinalis (DIGSA); test: Herbicidal pre-emergence action (A), 1280 g/ha; details: visual grading after ca. 3 weeks vs untreated controls, 100% = plants have died off, 0% = as control plants
Method in brief: as §1

[4] = tested on: Echinochloa crus-galli (ECHCG); test: Herbicidal pre-emergence action (A), 1280 g/ha; details: visual grading after ca. 3 weeks vs untreated controls, 100% = plants have died off, 0% = as control plants
Method in brief: as §1

[5] = tested on: Kochia scoparia (KCHSC; Bassia scoparia); test: Herbicidal pre-emergence action (A), 1280 g/ha; details: visual grading after ca. 3 weeks vs untreated controls
Method in brief: as §1

Lolium rigidum (LOLRI) [6] = test: Herbicidal pre-emergence action (A), 1280 g/ha; details: visual grading after ca. 3 weeks vs untreated controls, 100% = plants have died off, 0% = as control plants
Method in brief: as §1

[7] = tested on: Matricaria inodora (MATIN); test: Herbicidal pre-emergence action (A), 1280 g/ha; details: visual grading after ca. 3 weeks vs untreated controls
Method in brief: as §1

Poa annua (POAAN) = test: Herbicidal pre-emergence action (A), 1280 g/ha; details: visual grading after ca. 3 weeks vs untreated controls, 100% = plants have died off, 0% = as control plants
Method in brief: as §1

Setaria viridis (SETVI) [8] = test: Herbicidal pre-emergence action (A), 1280 g/ha; details: visual grading after ca. 3 weeks vs untreated controls
Method in brief: as §1

Stellaria media (STEME) = test: Herbicidal pre-emergence action (A), 1280 g/ha; details: visual grading after ca. 3 weeks vs untreated controls
Method in brief: as §1

Veronica persica (VERPE) [9] = test: Herbicidal pre-emergence action (A), 1280 g/ha; details: visual grading after ca. 3 weeks vs untreated controls
Method in brief: as §1

[10] = tested on: Alopecurus myosuroides (ALOMY); test: Herbicidal pre-emergence action (C), 320 g/ha; details: ca. 3 weeks
Method in brief: (§2)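 Sandy loam pots, seeds covered with soil → WP/EC compound sprayed on soil surface (aq., +0.5% additive, 600 l/ha) → greenhouse, optimum growth → visual herbicidal effect (%) at ca. 3 wk vs untreated.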

[11] = tested on: Amaranthus retroflexus (AMARE); test: Herbicidal pre-emergence action (C), 320 g/ha; details: ca. 3 weeks
Method in brief: as §2

[12] = tested on: Echinochloa crus-galli (ECHCG); test: Herbicidal pre-emergence action (C), 320 g/ha; details: ca. 3 weeks
Method in brief: as §2

Lolium rigidum (LOLRI) [13] = test: Herbicidal pre-emergence action (C), 320 g/ha; details: ca. 3 weeks
Method in brief: as §2

Setaria viridis (SETVI) [14] = test: Herbicidal pre-emergence action (C), 320 g/ha; details: ca. 3 weeks
Method in brief: as §2

Veronica persica (VERPE) [15] = test: Herbicidal pre-emergence action (C), 320 g/ha; details: ca. 3 weeks
Method in brief: as §2

[16] = tested on: Digitaria sanguinalis (DIGSA); test: Herbicidal pre-emergence action (C), 320 g/ha; details: ca. 3 weeks
Method in brief: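 Weed and crop seeds sown in sandy loam; WP or EC formulations applied pre-emergence to the soil surface as aqueous suspension/emulsion with 0.5% additive at 600 l water/ha. Greenhouse-grown under optimum conditions; damage visually scored after ca. 3 weeks versus untreated controls (0% = as control, 100% = plants dead).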

[17] = tested on: Alopecurus myosuroides (ALOMY); test: Herbicidal post-emergence action (D), 320 g/ha; details: ca. 3 weeks
Method in brief: (§3)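 Post-emergence greenhouse test. Sandy loam; spray at single-leaf stage (2–3 wk after sowing); WP or EC in water + 0.5% additive, 600 l/ha. Visual rating ~3 wk post-spray, % effect vs untreated (0 = control, 100 = dead).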

[18] = tested on: Polygonum convolvulus (POLCO); test: Herbicidal post-emergence action (D), 320 g/ha; details: ca. 3 weeks
Method in brief: as §3

Veronica persica (VERPE) [19] = test: Herbicidal post-emergence action (D), 320 g/ha; details: ca. 3 weeks
Method in brief: as §3

[20] = tested on: Amaranthus retroflexus (AMARE); test: Herbicidal post-emergence action (D), 320 g/ha; details: ca. 3 weeks
Method in brief: as §3

[21] = tested on: Echinochloa crus-galli (ECHCG); test: Herbicidal post-emergence action (D), 320 g/ha; details: ca. 3 weeks
Method in brief: as §3

[22] = tested on: Abutilon theophrasti (ABUTH); test: Herbicidal pre-emergence action (A), 1280 g/ha; details: visual grading after ca. 3 weeks vs untreated controls, 100% = plants have died off, 0% = as control plants
Method in brief: as §1

Row | Structure (SMILES) | ALOMY, herbicidal effect in percent (%) [1] | herbicidal effect AMARE [2] | ECHCG, herbicidal effect in percent (%) [4] | herbicidal effect KCHSC [5] | LOLRI, herbicidal effect in percent (%) (Lolium rigidum (LOLRI) [6]) | herbicidal effect MATIN [7] | POAAN, herbicidal effect in percent (%) (Poa annua (POAAN)) | herbicidal effect SETVI (Setaria viridis (SETVI) [8]) | herbicidal effect STEME (Stellaria media (STEME)) | herbicidal effect VERPE (Veronica persica (VERPE) [9]) | herbicidal effect ALOMY [10] | herbicidal effect AMARE [11] | herbicidal effect ECHCG [12] | herbicidal effect LOLRI (Lolium rigidum (LOLRI) [13]) | herbicidal effect SETVI (Setaria viridis (SETVI) [14]) | herbicidal effect VERPE (Veronica persica (VERPE) [15]) | herbicidal effect ALOMY [17] | herbicidal effect POLCO [18] | herbicidal effect VERPE (Veronica persica (VERPE) [19]) | herbicidal effect AMARE [20] | further results
1 | CCc1cc2scnc2nc1-c1ccc(F)cc1F [Example I-030] | 100% | 90% | 100% | 100% | 100% | 100% | 100% | 100% | 90% | 100% | 100% | 90% | 100% | 100% | 100% | 90% | 80% | 90% | 90% |  | DIGSA, herbicidal effect in percent (%) [3]: 90%; herbicidal effect DIGSA [16]: 100%
2 | Fc1ccccc1-c1nc2ncsc2cc1I [Example I-188] | 100% |  | 100% | 90% | 100% | 90% | 100% | 100% | 90% | 90% | 100% | 90% | 100% | 100% | 100% | 90% | 90% | 80% | 90% | 90% | herbicidal effect ECHCG [21]: 100%
3 | Fc1ccccc1-c1ccc2scnc2n1 [Example I-036, 5-(2-fluorophenyl)thiazolo[4,5-b]pyridine] |  | 90% | 100% |  | 100% | 90% | 100% | 100% | 90% |  | 100% | 100% | 100% | 100% | 100% | 90% |  | 80% |  |  | herbicidal effect DIGSA [16]: 100%; herbicidal effect ECHCG [21]: 80%
4 | Cc1cc2scnc2nc1-c1ccsc1C [Example I-194] | 100% | 100% | 100% | 100% | 100% | 100% | 100% | 100% | 100% | 100% | 100% | 90% | 100% | 100% | 100% | 80% | 90% |  |  | 80% | herbicidal effect ECHCG [21]: 90%
5 | Fc1ccccc1-c1nc2ncsc2cc1C1CC1 [Example I-102] | 100% | 90% | 100% | 100% | 100% | 100% | 100% | 100% | 90% | 100% | 90% | 90% | 100% | 100% | 100% | 80% |  | 80% | 80% | 80% | ABUTH, herbicidal effect in percent (%) [22]: 90%; DIGSA, herbicidal effect in percent (%) [3]: 100%
6 | Cc1cc2scnc2nc1-c1sccc1C [Example I-143] | 100% | 90% | 100% | 90% | 100% | 90% | 100% | 100% | 90% | 100% | 100% | 90% | 100% | 100% | 100% | 90% | 90% |  | 80% | 80% | ABUTH, herbicidal effect in percent (%) [22]: 90%; herbicidal effect ECHCG [21]: 80%
7 | Cc1cc2scnc2nc1-c1cccc(F)c1 [Example I-003, 5-(3-fluorophenyl)-6-methyl-thiazolo[4,5-b]pyridine] | 90% | 90% | 100% | 100% | 100% | 90% | 100% | 100% | 90% | 90% | 100% | 80% | 100% | 100% | 100% | 90% | 90% |  | 90% | 80% | DIGSA, herbicidal effect in percent (%) [3]: 100%; herbicidal effect DIGSA [16]: 100%
